# Reference: PubChem BioAssay (NCI)
#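 Test compounds were applied to cells in 96-well plates for 48 hours at 5 doses. TGI denotes the concentration required for complete inhibition of growth.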
# Experiments:
# Assay in all cases: DTP human tumour cell line panel, 48 h
# [1] = test system: HCC-2998 colon
# [2] = test system: SR leukemia
# [3] = test system: SN12C renal
# [4] = test system: RPMI-8226 leukemia
# [5] = test system: SNB-78 CNS
# [6] = test system: KM20L2 colon
# [7] = test system: HOP-18 NSCLC
# [8] = test system: M19-MEL melanoma
# [9] = test system: U251 CNS
# [10] = test system: HOP-62 NSCLC
# [11] = test system: LOX IMVI melanoma
# [12] = test system: SNB-75 CNS
# [13] = test system: SW-620 colon
# [14] = test system: A549 NSCLC
# [15] = test system: COLO 205 colon
# [16] = test system: TK-10 renal
# [17] = test system: SK-OV-3 ovarian
# [18] = test system: SK-MEL-28 melanoma
# [19] = test system: UO-31 renal
# [20] = test system: NCI-H460 lung
# [21] = test system: SF-539 CNS
# [22] = test system: NCI-H23 lung
# [23] = test system: 786-0 renal
# [24] = test system: OVCAR-8 ovarian
# [25] = test system: EKVX NSCLC
# [26] = test system: HT29 colon
# [27] = test system: HL-60(TB) leukemia
# [28] = test system: RXF-631 renal
# [29] = test system: MOLT-4 leukemia
# [30] = test system: MALME-3M melanoma
# [31] = test system: SK-MEL-5 melanoma
# [32] = test system: UACC-257 melanoma
# [33] = test system: DMS 114 small cell lung
# [34] = test system: UACC-62 melanoma
# [35] = test system: NCI-H522 lung
# [36] = test system: NCI-H226 lung
# [37] = test system: A498 renal
# [38] = test system: ACHN renal
# [39] = test system: CAKI-1 renal
# [40] = test system: SF-295 CNS
# [41] = test system: HCT-15 colon
# [42] = test system: SF-268 CNS
# [43] = test system: OVCAR-5 ovarian
# [44] = test system: OVCAR-3 ovarian
# [45] = test system: OVCAR-4 ovarian
# [46] = test system: SNB-19 CNS
# [47] = test system: KM12 colon
# [48] = test system: M14 melanoma
# [49] = test system: HOP-92 NSCLC
# [50] = test system: LXFL 529 NSCLC
# [51] = test system: IGROV1 ovarian
# [52] = test system: CCRF-CEM leukemia
# [53] = test system: HCT-116 colon
# [54] = test system: DLD-1 colon
# [55] = test system: RXF 393 renal
# [56] = test system: XF 498 CNS
# [57] = test system: DMS 273 small cell lung
# [58] = test system: K-562 leukemia
smiles,measurement,setting,value
CC(=O)/C=C/c1cccc(N=S)c1,TGI,[1],34.6 µM
same,TGI,[2],> 100 µM
same,TGI,[3],87.2 µM
same,TGI,[4],> 27.8 µM
same,TGI,[5],> 100 µM
same,TGI,[6],37 µM
same,TGI,[7],> 100 µM
same,TGI,[8],18.3 µM
same,TGI,[9],20.8 µM
same,TGI,[10],> 100 µM
same,TGI,[11],5.92 µM
same,TGI,[12],> 91.8 µM
same,TGI,[13],6.68 µM
same,TGI,[14],> 59.1 µM
same,TGI,[15],> 48 µM
same,TGI,[16],> 89.9 µM
same,TGI,[17],> 81.9 µM
same,TGI,[18],44.6 µM
same,TGI,[19],> 74 µM
same,TGI,[20],> 53.8 µM
same,TGI,[21],20.8 µM
same,TGI,[22],> 92.7 µM
same,TGI,[23],13.1 µM
same,TGI,[24],31 µM
same,TGI,[25],> 63 µM
same,TGI,[26],19.5 µM
same,TGI,[27],34.2 µM
same,TGI,[28],> 100 µM
same,TGI,[29],> 75.2 µM
same,TGI,[30],> 100 µM
same,TGI,[31],63.4 µM
same,TGI,[32],> 67.4 µM
same,TGI,[33],> 66.1 µM
same,TGI,[34],> 57.2 µM
same,TGI,[35],> 53.7 µM
same,TGI,[36],> 83.3 µM
same,TGI,[37],78.7 µM
same,TGI,[38],> 53.3 µM
same,TGI,[39],> 100 µM
same,TGI,[40],54.3 µM
same,TGI,[41],31.9 µM
same,TGI,[42],> 69.6 µM
same,TGI,[43],> 100 µM
same,TGI,[44],48.4 µM
same,TGI,[45],> 100 µM
same,TGI,[46],> 87.5 µM
same,TGI,[47],20.2 µM
same,TGI,[48],22.4 µM
same,TGI,[49],> 100 µM
same,TGI,[50],32.9 µM
same,TGI,[51],> 48.4 µM
same,TGI,[52],> 49.1 µM
same,TGI,[53],2.72 µM
same,TGI,[54],16.5 µM
same,TGI,[55],53.8 µM
same,TGI,[56],> 100 µM
same,TGI,[57],20.9 µM
same,TGI,[58],> 35.9 µM
